Data published in ChEMBL document CHEMBL1201862, “PubChem BioAssay data set” (2004).
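Method: 48-hour compound exposure of cells in 96-well plates, five concentrations, linear interpolation of endpoints. At the GI50, growth is halved.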 Active and inactive are the calls of the source. Cut-off read from the data, not from the text of the source: active = GI50 up to about 1.1 µM and inactive = higher.

Assays:
Experiment in all cases: NCI tumour cell line growth inhibition, 48 h
786-0 = system: 786-0
A498 = system: A498
A549 = system: A549
ACHN = system: ACHN
BT-549 = system: BT-549
CAKI-1 = system: CAKI-1
CCRF-CEM = system: CCRF-CEM
COLO 205 = system: COLO 205
DU-145 = system: DU-145
EKVX = system: EKVX
HCC 2998 = system: HCC 2998
HCT-116 = system: HCT-116
HCT-15 = system: HCT-15
HL-60 = system: HL-60
HOP-62 = system: HOP-62
HOP-92 = system: HOP-92
HT-29 = system: HT-29
Hs-578T = system: Hs-578T
IGROV-1 = system: IGROV-1
K562 = system: K562
KM12 = system: KM12
LOX IMVI = system: LOX IMVI
M14 = system: M14
MCF7 = system: MCF7
MDA-MB-231 = system: MDA-MB-231
MDA-MB-435 = system: MDA-MB-435
MDA-N = system: MDA-N
MOLT-4 = system: MOLT-4
Malme-3M = system: Malme-3M
NCI-H226 = system: NCI-H226
NCI-H23 = system: NCI-H23
NCI-H460 = system: NCI-H460
NCI-H522 = system: NCI-H522
NCI/ADR-RES = system: NCI/ADR-RES
OVCAR-3 = system: OVCAR-3
OVCAR-4 = system: OVCAR-4
OVCAR-5 = system: OVCAR-5
OVCAR-8 = system: OVCAR-8
PC-3 = system: PC-3
RPMI-8226 = system: RPMI-8226
RXF 393 = system: RXF 393
SF-268 = system: SF-268
SF-295 = system: SF-295
SF-539 = system: SF-539
SK-MEL-28 = system: SK-MEL-28
SK-MEL-2 = system: SK-MEL-2
SK-MEL-5 = system: SK-MEL-5
SK-OV-3 = system: SK-OV-3
SN12C = system: SN12C
SNB-19 = system: SNB-19
SNB-75 = system: SNB-75
SR = system: SR
SW-620 = system: SW-620
T47D = system: T47D
TK-10 = system: TK-10
U-251 = system: U-251
UACC-257 = system: UACC-257
UACC-62 = system: UACC-62
UO-31 = system: UO-31

Question: How did the GI50 (786-0) turn out when `COc1cccc(Nc2nc(N)nc(N)c2N)c1` was run?
Answer: 39.7 µM (inactive)

Question: And the GI50 (A498)?
Answer: > 100 µM (inactive)

Question: What about the GI50 (A549) of the same molecule?
Answer: > 100 µM (inactive)

Question: And the GI50 (ACHN)?
Answer: 42.6 µM (inactive)

Question: What about the GI50 (BT-549) of the same molecule?
Answer: 35.7 µM (inactive)

Question: What about the GI50 (CAKI-1) of the same molecule?
Answer: 11.8 µM (inactive)

Question: What about the GI50 (CCRF-CEM) of the same molecule?
Answer: 18.5 µM (inactive)

Question: And the GI50 (COLO 205)?
Answer: 34.4 µM (inactive)

Question: And the GI50 (DU-145)?
Answer: > 100 µM (inactive)

Question: What about the GI50 (EKVX) of the same molecule?
Answer: > 100 µM (inactive)

Question: And the GI50 (HCC 2998)?
Answer: 98.2 µM (inactive)

Question: What about the GI50 (HCT-116) of the same molecule?
Answer: 22.2 µM (inactive)

Question: What about the GI50 (HCT-15) of the same molecule?
Answer: 36.9 µM

Question: And the GI50 (HL-60)?
Answer: 24.2 µM (inactive)

Question: And the GI50 (HOP-62)?
Answer: 29.3 µM (inactive)

Question: And the GI50 (HOP-92)?
Answer: > 100 µM (inactive)

Question: And the GI50 (HT-29)?
Answer: 40.7 µM (inactive)

Question: What about the GI50 (Hs-578T) of the same molecule?
Answer: > 100 µM (inactive)

Question: And the GI50 (IGROV-1)?
Answer: 35.1 µM (inactive)

Question: What about the GI50 (K562) of the same molecule?
Answer: 37.2 µM (inactive)

Question: What about the GI50 (KM12) of the same molecule?
Answer: > 100 µM (inactive)

Question: And the GI50 (LOX IMVI)?
Answer: 21.4 µM (inactive)

Question: And the GI50 (M14)?
Answer: > 100 µM (inactive)

Question: What about the GI50 (MCF7) of the same molecule?
Answer: 30.4 µM (inactive)

Question: And the GI50 (MDA-MB-231)?
Answer: 22.1 µM (inactive)

Question: What about the GI50 (MDA-MB-435) of the same molecule?
Answer: 39.7 µM (inactive)

Question: And the GI50 (MDA-N)?
Answer: 19.5 µM (inactive)

Question: And the GI50 (MOLT-4)?
Answer: 15.4 µM (inactive)

Question: And the GI50 (Malme-3M)?
Answer: > 100 µM (inactive)

Question: And the GI50 (NCI-H226)?
Answer: > 100 µM (inactive)

Question: And the GI50 (NCI-H23)?
Answer: 33.4 µM (inactive)

Question: What about the GI50 (NCI-H460) of the same molecule?
Answer: 20 µM (inactive)

Question: And the GI50 (NCI-H522)?
Answer: 30 µM (inactive)

Question: What about the GI50 (NCI/ADR-RES) of the same molecule?
Answer: > 100 µM (inactive)

Question: And the GI50 (OVCAR-3)?
Answer: 42.8 µM (inactive)

Question: And the GI50 (OVCAR-4)?
Answer: > 100 µM (inactive)

Question: And the GI50 (OVCAR-5)?
Answer: > 100 µM (inactive)

Question: And the GI50 (OVCAR-8)?
Answer: 65.2 µM (inactive)

Question: What about the GI50 (PC-3) of the same molecule?
Answer: 99.8 µM (inactive)

Question: And the GI50 (RPMI-8226)?
Answer: 24.9 µM (inactive)

Question: What about the GI50 (RXF 393) of the same molecule?
Answer: > 100 µM (inactive)

Question: And the GI50 (SF-268)?
Answer: > 100 µM (inactive)

Question: And the GI50 (SF-295)?
Answer: 29.7 µM (inactive)

Question: And the GI50 (SF-539)?
Answer: 40.8 µM (inactive)

Question: And the GI50 (SK-MEL-28)?
Answer: > 100 µM (inactive)

Question: What about the GI50 (SK-MEL-2) of the same molecule?
Answer: > 100 µM (inactive)

Question: What about the GI50 (SK-MEL-5) of the same molecule?
Answer: 30.3 µM (inactive)

Question: What about the GI50 (SK-OV-3) of the same molecule?
Answer: > 100 µM (inactive)

Question: And the GI50 (SN12C)?
Answer: 20.1 µM (inactive)

Question: And the GI50 (SNB-19)?
Answer: > 100 µM (inactive)

Question: And the GI50 (SNB-75)?
Answer: > 100 µM (inactive)

Question: What about the GI50 (SR) of the same molecule?
Answer: 24 µM (inactive)

Question: What about the GI50 (SW-620) of the same molecule?
Answer: 31.8 µM (inactive)

Question: And the GI50 (T47D)?
Answer: 35.6 µM (inactive)

Question: What about the GI50 (TK-10) of the same molecule?
Answer: > 100 µM (inactive)

Question: And the GI50 (U-251)?
Answer: 76.9 µM (inactive)

Question: And the GI50 (UACC-257)?
Answer: > 100 µM (inactive)

Question: And the GI50 (UACC-62)?
Answer: 58.2 µM (inactive)

Question: And the GI50 (UO-31)?
Answer: > 100 µM (inactive)

Question: With `Oc1c(C(O)(c2ccccc2)c2ccc3ccccc3c2O)ccc2ccccc12` as the molecule, how does the GI50 (786-0) read?
Answer: 20 µM (inactive)

Question: And the GI50 (A498)?
Answer: 16.1 µM (inactive)

Question: What about the GI50 (A549) of the same molecule?
Answer: 12.1 µM (inactive)

Question: What about the GI50 (ACHN) of the same molecule?
Answer: 10.5 µM (inactive)

Question: What about the GI50 (BT-549) of the same molecule?
Answer: 17.7 µM (inactive)

Question: What about the GI50 (CAKI-1) of the same molecule?
Answer: 15 µM (inactive)

Question: And the GI50 (CCRF-CEM)?
Answer: 0.597 µM (active)

Question: And the GI50 (COLO 205)?
Answer: 17.2 µM (inactive)

Question: What about the GI50 (DU-145) of the same molecule?
Answer: 15.6 µM (inactive)

Question: What about the GI50 (EKVX) of the same molecule?
Answer: 11.4 µM (inactive)

Question: And the GI50 (HCC 2998)?
Answer: 6.87 µM (inactive)

Question: What about the GI50 (HCT-116) of the same molecule?
Answer: 7.76 µM (inactive)

Question: And the GI50 (HCT-15)?
Answer: 8.77 µM

Question: And the GI50 (HL-60)?
Answer: 3.52 µM (inactive)

Question: What about the GI50 (HOP-62) of the same molecule?
Answer: 15 µM (inactive)

Question: And the GI50 (HOP-92)?
Answer: 9.1 µM (inactive)

Question: And the GI50 (HT-29)?
Answer: 17 µM (inactive)

Question: And the GI50 (Hs-578T)?
Answer: 7.03 µM (inactive)

Question: And the GI50 (IGROV-1)?
Answer: 7.36 µM (inactive)

Question: What about the GI50 (K562) of the same molecule?
Answer: 2.88 µM (inactive)

Question: What about the GI50 (KM12) of the same molecule?
Answer: 9.38 µM (inactive)

Question: What about the GI50 (LOX IMVI) of the same molecule?
Answer: 10.3 µM (inactive)

Question: And the GI50 (M14)?
Answer: 15.5 µM (inactive)

Question: And the GI50 (MCF7)?
Answer: 2.93 µM (inactive)

Question: What about the GI50 (MDA-MB-231) of the same molecule?
Answer: 13.6 µM (inactive)

Question: What about the GI50 (MDA-MB-435) of the same molecule?
Answer: 14.1 µM (inactive)

Question: What about the GI50 (MDA-N) of the same molecule?
Answer: 12.2 µM (inactive)

Question: What about the GI50 (MOLT-4) of the same molecule?
Answer: 1.88 µM (inactive)

Question: And the GI50 (Malme-3M)?
Answer: 11.8 µM (inactive)

Question: And the GI50 (NCI-H226)?
Answer: 18.8 µM (inactive)

Question: And the GI50 (NCI-H23)?
Answer: 5.12 µM (inactive)

Question: What about the GI50 (NCI-H460) of the same molecule?
Answer: 8.91 µM (inactive)

Question: What about the GI50 (NCI-H522) of the same molecule?
Answer: 4.01 µM (inactive)

Question: What about the GI50 (NCI/ADR-RES) of the same molecule?
Answer: 13.2 µM (inactive)

Question: What about the GI50 (OVCAR-3) of the same molecule?
Answer: 6.47 µM (inactive)

Question: What about the GI50 (OVCAR-4) of the same molecule?
Answer: 8.93 µM (inactive)

Question: What about the GI50 (OVCAR-5) of the same molecule?
Answer: 17.8 µM (inactive)

Question: What about the GI50 (OVCAR-8) of the same molecule?
Answer: 11.3 µM (inactive)

Question: And the GI50 (PC-3)?
Answer: 8.26 µM (inactive)

Question: And the GI50 (RPMI-8226)?
Answer: 2.11 µM (inactive)

Question: And the GI50 (RXF 393)?
Answer: 8.87 µM (inactive)

Question: And the GI50 (SF-268)?
Answer: 12.2 µM (inactive)

Question: What about the GI50 (SF-295) of the same molecule?
Answer: 16.5 µM (inactive)

Question: And the GI50 (SF-539)?
Answer: 19 µM (inactive)

Question: And the GI50 (SK-MEL-28)?
Answer: 14.7 µM (inactive)

Question: And the GI50 (SK-MEL-2)?
Answer: 12.4 µM (inactive)

Question: What about the GI50 (SK-MEL-5) of the same molecule?
Answer: 5.68 µM (inactive)

Question: What about the GI50 (SK-OV-3) of the same molecule?
Answer: 17.9 µM (inactive)

Question: And the GI50 (SN12C)?
Answer: 7.74 µM (inactive)

Question: And the GI50 (SNB-19)?
Answer: 14.2 µM (inactive)

Question: What about the GI50 (SNB-75) of the same molecule?
Answer: 14.7 µM (inactive)

Question: What about the GI50 (SR) of the same molecule?
Answer: 1.26 µM (inactive)

Question: What about the GI50 (SW-620) of the same molecule?
Answer: 11.2 µM (inactive)

Question: And the GI50 (T47D)?
Answer: 2.96 µM (inactive)

Question: And the GI50 (TK-10)?
Answer: 13 µM (inactive)

Question: What about the GI50 (U-251) of the same molecule?
Answer: 9.31 µM (inactive)

Question: And the GI50 (UACC-257)?
Answer: 10.2 µM (inactive)

Question: And the GI50 (UACC-62)?
Answer: 10.6 µM (inactive)

Question: And the GI50 (UO-31)?
Answer: 11.2 µM (inactive)
